{"source": "patent US11246856B2", "about": "“Methods of treating resistant cancers” (University of Maryland, Baltimore, priority 2017, dated 2022)", "key": {"[1]": {"test_system": "A375 cells", "experiment": "Cell proliferation, monolayer A375 cells", "format": "cell-based", "settings": "PLX4032 treatment, FIG. 1D", "experimental": "A375, SK-MEL-5 and SK-MEL-28 cell lines were maintained in DMEM growth medium containing 10% FCS, 2 mM L-glutamine and 1 mM sodium pyruvate. The WM3248 cells were maintained in MCDB153:L15 (4:1) growth medium containing 2% FCS, […] insulin and 1.68 mM CaCl2. To create PLX4032-resistant cells, A375, SK-MEL-5, SK-MEL-28 and WM3248 cells were treated with […] in monolayer culture in growth medium for several weeks. The surviving cells were then expanded and cultured in increasing doses of PLX4032 up to […]. The resulting PLX4032-resistant cells, designated PLX4032-resistant (e.g., A375-PLX-R) were routinely maintained in the presence of […] PLX4032."}, "[2]": {"test_system": "A375-PLX-R cells", "experiment": "Immunoblot of ERK1/2 activity in A375-PLX-R cells", "format": "cell-based", "settings": "TEAD intact versus knockdown, FIG. 3F", "experimental": "Equivalent amounts of protein were electrophoresed on denaturing and reducing 10% polyacrylamide gels and transferred to nitrocellulose membrane. The membrane was blocked by 5% nonfat dry milk for one hour and incubated with 1:1000 primary antibody in 5% nonfat dry milk. Blots were rinsed in TBS-T and then incubated with secondary antibodies (1:5000) for 2 h. Secondary antibody binding was visualized using ECL Prime (Amersham) chemiluminescence detection technology. For immunostaining, cells were harvested, suspended in growth medium, and plated in LAB-TEK II Chamber Slide System. After 24 h, the cells were fixed with 4% paraformaldehyde at room temperature for 15 min, washed three with phosphate-buffered saline, in 0.1% Triton X-100 for 15 min, washed with phosphate-buffered saline, and blocked for 1 h with phosphate-buffered saline containing 7.5% fetal calf serum. Primary antibodies were added, and the slides incubated overnight at 4° C. Cells were then washed three times with phosphate-buffered saline and incubated 1 h with the appropriate Alexa Flour fluorescence probe-conjugated secondary antibody. After additional washing, the cells were stained with DAPI for 10 min prior to imaging."}}, "data": [{"smiles": "CCCS(=O)(=O)Nc1ccc(F)c(C(=O)c2c[nH]c3ncc(-c4ccc(Cl)cc4)cc23)c1F", "note": "[PLX4032]", "values": [{"measurement": "A375 cell proliferation", "setting": "[1]", "result": "reduces"}, {"measurement": "ERK1/2 activity", "setting": "[2]", "result": "only reduced in A375-PLX-R cells following TEAD knockdown and PLX4032 treatment"}]}]}
